Data: BindingDB's records for patent US20250368640 (Biofront, 2025)

Assays:
[1] = biological target: Mitogen-activated protein kinase kinase kinase kinase 1 (Homo sapiens, UniProt Q92918); assay: HPK1 Enzyme Inhibition Assay
Procedure: The compound was dissolved in 100% DMSO at the concentration of 10 mM. The HPK1 protein was purchased from Signal Chem (M23-11G-10). 2.5 μL per well of 2×HPK1 protein was added to assay plate containing the test compound, centrifuged at 1500 rpm for 1 minute, and then incubated at 25° C. for 60 minutes. MBP protein was purchased from Signal Chem (M42-51N) and ATP was purchased from Promega (V9102). The two were added 2.5 μL per well mixture of 2×MBP (0.2 ug/ul) and ATP (20 μM), centrifuged at 1500 rpm for 1 minute, then incubated at 25° C. for 60 minutes. Then added 5 μL of ADP-Glo from Promega (V9102) to the assay plate and depleted the unconsumed ATP for 60 minutes. Then centrifuged at 1500 rpm for 1 minute and incubated at 25° C. for 60 minutes. Finally, 10 μL of the kinase assay reagent from Promega (V9102) was added to the assay plate to convert ADP to ATP, centrifuged at 1500 rpm for 1 minute, incubate at 25° C. for 40 minutes. After 40 minutes incubation, the […] was determined.

Aurora kinase A = biological target: T1, Aurora kinase A (Homo sapiens, UniProt O14965); assay: Aurora A Enzyme Inhibition Assay
T1 sequence (O14965 whole entry): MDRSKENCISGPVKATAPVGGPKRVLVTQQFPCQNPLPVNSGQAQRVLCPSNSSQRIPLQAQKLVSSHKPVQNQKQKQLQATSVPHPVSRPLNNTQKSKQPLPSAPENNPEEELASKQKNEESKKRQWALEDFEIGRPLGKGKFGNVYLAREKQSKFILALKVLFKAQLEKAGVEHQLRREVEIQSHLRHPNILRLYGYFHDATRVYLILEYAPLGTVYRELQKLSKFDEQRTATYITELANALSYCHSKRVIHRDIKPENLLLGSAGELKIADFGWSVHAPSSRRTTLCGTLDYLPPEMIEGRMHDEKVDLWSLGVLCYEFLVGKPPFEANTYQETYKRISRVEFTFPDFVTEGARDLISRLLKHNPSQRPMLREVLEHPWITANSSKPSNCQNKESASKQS
Procedure: The compound was dissolved in 100% DMSO at the concentration of 10 mM. The Aurora A protein was purchased from Carna (05-101). 10 μL per well of 2.5×Aurora A protein was added to assay plate containing the test compound, centrifuged at 1000 rpm for 1 minute, and then incubated at 25° C. for 10 minutes. Peptide 21 was purchased from GL Biochem (116370) and ATP was purchased from Promega (V9102). The two were added 15 μL per well mixture of 1.67× peptide 21 (final conc. is 3 μM) and ATP (final conc. is 14.58 μM), centrifuged at 1000 rpm for 1 minute, then incubated at 25° C. for 40 minutes. Then added 30 μL of stop buffer (100 mM HEPES pH7.5, 0.015% Brij-35, 0.2% Coating Reagent 3, 50 mM EDTA) to the assay plate and centrifuged at 1000 rpm for 1 minute. the product was determined.

Chain of Mitogen-activated protein kinase kinase kinase kinase 1 (Q92918 whole entry): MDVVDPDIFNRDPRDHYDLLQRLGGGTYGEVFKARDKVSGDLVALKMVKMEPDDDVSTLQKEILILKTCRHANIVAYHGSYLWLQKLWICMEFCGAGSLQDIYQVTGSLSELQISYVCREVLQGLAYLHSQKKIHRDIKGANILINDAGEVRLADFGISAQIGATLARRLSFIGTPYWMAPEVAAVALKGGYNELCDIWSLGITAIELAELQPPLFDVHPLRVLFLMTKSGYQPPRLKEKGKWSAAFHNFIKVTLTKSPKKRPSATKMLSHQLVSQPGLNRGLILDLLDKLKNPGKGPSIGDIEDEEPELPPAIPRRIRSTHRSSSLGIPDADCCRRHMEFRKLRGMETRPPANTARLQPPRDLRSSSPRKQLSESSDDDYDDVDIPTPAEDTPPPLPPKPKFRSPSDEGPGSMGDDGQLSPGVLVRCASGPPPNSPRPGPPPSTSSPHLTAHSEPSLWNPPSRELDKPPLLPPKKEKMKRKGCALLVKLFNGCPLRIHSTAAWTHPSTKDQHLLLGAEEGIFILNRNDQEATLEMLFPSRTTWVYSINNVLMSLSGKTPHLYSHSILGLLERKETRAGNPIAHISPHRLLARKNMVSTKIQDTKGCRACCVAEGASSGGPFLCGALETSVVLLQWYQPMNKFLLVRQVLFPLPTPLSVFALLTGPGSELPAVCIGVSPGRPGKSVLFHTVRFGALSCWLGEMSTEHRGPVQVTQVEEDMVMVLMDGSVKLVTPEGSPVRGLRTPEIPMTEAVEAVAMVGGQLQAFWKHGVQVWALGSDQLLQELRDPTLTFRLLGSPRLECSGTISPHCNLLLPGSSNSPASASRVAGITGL

SMILES	IC50 [1]	IC50 (Aurora kinase A)
CCc1c[nH]c2ncc(-c3cccc(N4CCCN(CCN5CC(c6ccc7c(c6)CN(C6CCC(=O)NC6=O)C7=O)C5)C4=O)c3)c(Cl)c12 (centres undefined)	1.1 nM	10.1 nM
CCc1c[nH]c2ncc(-c3cccc(N4CCCN(CCN5CC(c6ccc7c(c6)C(=O)N(C6CCC(=O)NC6=O)C7)C5)C4=O)c3)c(Cl)c12 (centres undefined) [US20250368640, Example 1]	0.76 nM	14.3 nM
